{"source": "patent US20050031540A1", "about": "“Visco dye” (priority 2001, published 2005)", "key": {"[1]": {"test_system": "anterior capsule of the crystalline lens", "assay": "Vital dye staining of the anterior lens capsule to visualise the CCC", "settings": "absence of a red fundus reflex", "excerpt": "It is possible to use a number of vital dyes already known today, but also such which may become available in the future as the visualising agent. […] These include azophlozin, basic blue, Bismarck brown, basis red, bengal red, brilliant cresyl blue, eosin, fluorescein, gentian violet, indocyanine green, Janus green, methylene green, methylene blue, neutral red and others."}, "[2]": {"test_system": "corneal endothelial cells", "settings": "earlier use to stain corneas prior to corneal transplants; cited from earlier work"}}, "data": [{"compound": "Cc1cc(-c2ccc(/N=N/c3c(S(=O)(=O)O)cc4cc(S(=O)(=O)O)cc(N)c4c3O)c(C)c2)ccc1/N=N/c1c(S(=O)(=O)O)cc2cc(S(=O)(=O)O)cc(N)c2c1O", "note": "[trypan blue]", "values": [{"measurement": "staining of the anterior capsule sufficient to visualise the CCC", "setting": "[1]; dye 0.1%", "result": "stained the anterior capsule sufficiently to visualise the CCC"}, {"measurement": "tolerance of corneal endothelium to vital staining, endothelial cell counts", "setting": "[2]", "result": "without a reduction in endothelial cell counts"}]}, {"compound": "CN(C)c1ccc(C(=C2C=CC(=[N+](C)C)C=C2)c2ccc(N(C)C)cc2)cc1", "note": "[gentian violet]", "values": [{"measurement": "staining of the anterior capsule sufficient to visualise the CCC", "setting": "[1]; dye 2%", "result": "stained the anterior capsule sufficiently to visualise the CCC"}]}, {"compound": "CN(C)c1ccc2nc3ccc(=[N+](C)C)cc-3sc2c1", "note": "[methylene blue]", "values": [{"measurement": "staining of the anterior capsule sufficient to visualise the CCC", "setting": "[1]; dye 5%", "result": "stained the anterior capsule sufficiently to visualise the CCC"}]}, {"compound": "brilliant cresyl blue", "values": [{"measurement": "staining of the anterior capsule sufficient to visualise the CCC", "setting": "[1]; dye 1%", "result": "stained the anterior capsule sufficiently to visualise the CCC"}]}]}
